# Results published in patent US10646596B2, “Near-infrared dye-bound transferrin, and contrast agent for photoacoustic imaging, including the near-infrared dye-bound transferrin” (CANON KABUSHIKI KAISHA, priority 2015, dated 2020).
# Tests used:
# [1] = system: colon 26 mouse colon cancer cells (subcutaneous tumor); assay: Evaluation of tumor-imaging contrast by fluorescence imaging in cancer-bearing mouse; type: in vivo; settings: for fluorescent signal from the tumor site in fluorescence image: 24 hours after administration, FIGURE; for Imaging contrast (fluorescence intensity of tumor site / normal site): 24 hours after tail vein administration, 10 nmol dye per mouse (Alexa Fluor 680-TF (2.0): 31 nmol)
# Description: In the fluorescence imaging experiment, a female outbred BALB/c Slc-nu/nu mouse (6-week-old at the time of purchase) (Japan SLC, Inc.) was used. For one week before the mouse was allowed to bear a cancer, normal diet and bed were used to habituate the mouse to an environment where the diet and drinking water were available ad libitum. Before about one week of the imaging experiment, 1×10^6 colon 26 mouse colon cancer cells (RIKEN) were subcutaneously injected into the femur area of the mouse to thereby prepare a cancer-bearing model mouse.
# In order to evaluate the tumor-imaging contrast, the fluorescence intensity of a tumor site (measured area: 0.5×0.5 cm) and the fluorescence intensity (selected as a normal site, measured area: 0.5×0.5 cm) of the base of a leg were quantified from the fluorescence imaging data illustrated in FIGURE. The ratio of the intensities, namely, the value obtained by dividing the value of the fluorescence intensity of a tumor site by the value of the fluorescence intensity of a normal site, was expressed by a numeral value as an imaging contrast. […] A larger imaging contrast of the compound of the present invention than the imaging contrast of Alexa Fluor 680-TF (2.0) is considered to be due to the difference in tumor accumulation property, as described later. The number of the dye(s) labeled at which the highest imaging contrast was achieved was 4.8. On the other hand, when the number of the dye(s) labeled exceeded 8, a tendency of the imaging contrast to be reduced was observed.
# [2] = system: colon 26 mouse colon cancer cells (subcutaneous tumor); assay: Tumor accumulation property (amount of dye in tumor) in cancer-bearing mouse; type: in vivo; settings: 24 hours after administration; for Tumor/blood ratio: tumor accumulation / residual rate in blood
# Description: (§1) The amount of the dye in a tumor and the amount of the dye in blood with respect to each mouse in the tumor-imaging experiment performed in Example 4 were quantitatively determined to thereby evaluate the tumor accumulation property and the residual rate in blood of each compound.
# (§2) The tumor accumulation property was expressed as the rate of dye transfer (% ID/g) to a tumor relative to the amount of the dye to be administered per gram of the tumor. First, the mouse was euthanized by a carbon dioxide gas after 24 hours of administration, and thereafter the tumor was surgically resected. The tumor was transferred to a plastic tube, an aqueous 1% Triton-X100 solution was added at 1.25 times the weight of the tumor, and the tumor was crushed using a plastic pestle. Next, DMSO was added at 20.25 times the weight of the tumor tissue. The fluorescence intensity of the solution of the tumor crushed, treated as described above, was measured in the plastic tube using IVIS (registered trademark) Imaging System 200 Series (XENOGEN) to thereby measure the amount of the dye in the tumor.
# (§3) The tumor/blood ratio was calculated by the above measurements. The ratio corresponds to the ratio of the tumor accumulation property to the residual rate in blood, and a higher ratio means a higher tumor-imaging ability.
# [3] = Residual rate in blood (amount of dye in blood) in cancer-bearing mouse; type: in vivo; settings: 24 hours after administration, tail vein blood
# Description: as §1
# The residual rate in blood was expressed as the rate of dye transfer (% ID/g) to blood relative to the amount of the dye to be administered per gram of blood (1 mL when the specific gravity was assumed to be 1). A blood sample was taken from the tail vein of the mouse after 24 hours of administration, and the blood sample, 1% Triton (registered trademark) X-100 and DMSO were mixed in the plastic tube in a ratio of 2:9:9. The fluorescence intensity of the blood solution treated as described above was measured in the plastic tube using IVIS (registered trademark) Imaging System 200 Series (manufactured by XENOGEN) to thereby measure the amount of the dye in blood.
# [4] = Tumor accumulation property (amount of dye in tumor) in cancer-bearing mouse; type: in vivo; settings: mouse, 24 hours after administration
# Description: as §1, §2, §3
# [5] = in vivo; cited from earlier work
Compound,fluorescent signal from the tumor site in fluorescence image [1],Imaging contrast (fluorescence intensity of tumor site / normal site) [1],Tumor/blood ratio [2],Residual rate in blood [3] [% ID/g],"tissue uptake at 24 h ([4]; tumor, read-out: Rate of tumor accumulation) [%ID/g]","Kp at 24 h ([4]; tumor accumulation / residual rate in blood, read-out: Tumor/blood ratio)",Rate of tumor accumulation [2],"tissue uptake at 24 h ([3]; mouse, whole blood) [%ID/g]",half-life in blood [5]
iTF (2.0): Human transferrin covalently bound to ICG-Sulfo-OSu near-infrared dye; number of dye(s) labeled 2.0,the fluorescent signal from the tumor site was observed,3.3,0.7,2.8,–,–,–,–,–
"CC1(C)C(/C=C/C=C/C=C/C=C2/N(CCCCS(=O)(=O)[O-])c3ccc4ccccc4c3C2(C)C)=[N+](CCCCS(=O)(=O)[O-])c2ccc3ccccc3c21.[Na+] [ICG, indocyanine green, reference compound]",no fluorescent signal was observed,1.2,–,–,0,0.1,zero,0.1,about several minutes
"Alexa Fluor 680-TF (2.0): Transferrin From Human Serum, Alexa Fluor 680 Conjugate, Life Technologies, Product No. T35357, number of dye(s) labeled 2.0 [reference compound]",–,1.2,0.2,2.8,–,–,0.6 % ID/g,–,–
iTF (4.8): Human transferrin covalently bound to ICG-Sulfo-OSu near-infrared dye; number of dye(s) labeled 4.8,the fluorescent signal from the tumor site was observed,4.1,3.3,2.1,–,–,–,–,–
iTF (8.3): Human transferrin covalently bound to ICG-Sulfo-OSu near-infrared dye; number of dye(s) labeled 8.3,the fluorescent signal from the tumor site was observed,3.3,2.9,0.7,–,–,–,–,–
iTF (8.4): Human transferrin covalently bound to ICG-Sulfo-OSu near-infrared dye; number of dye(s) labeled 8.4,the fluorescent signal from the tumor site was observed,2.3,1.9,0.4,–,–,0.8 % ID/g,–,–
iTF (7.0): Human transferrin covalently bound to ICG-Sulfo-OSu near-infrared dye; number of dye(s) labeled 7.0,the fluorescent signal from the tumor site was observed,3.4,–,1.8,–,–,–,–,–
